Experimental data: ChEMBL document CHEMBL1127298, “Bis-catechol-substituted redox-reactive analogues of hexamethonium and decamethonium: stimulated affinity-dependent reactivity through iron peroxide catalysis” (J Med Chem, 1994)

What was measured:
Acetylcholine receptor [1] = target: T1, Acetylcholine receptor (Torpedo californica, UniProt P02710+P02712+P02714+P02718); experiment: Compound was evaluated for the binding constant for association with nicotinic acetylcholine receptor (nAChR); type: protein-complex assay, Tetronarce californica
T1 sequence (P02710 whole entry): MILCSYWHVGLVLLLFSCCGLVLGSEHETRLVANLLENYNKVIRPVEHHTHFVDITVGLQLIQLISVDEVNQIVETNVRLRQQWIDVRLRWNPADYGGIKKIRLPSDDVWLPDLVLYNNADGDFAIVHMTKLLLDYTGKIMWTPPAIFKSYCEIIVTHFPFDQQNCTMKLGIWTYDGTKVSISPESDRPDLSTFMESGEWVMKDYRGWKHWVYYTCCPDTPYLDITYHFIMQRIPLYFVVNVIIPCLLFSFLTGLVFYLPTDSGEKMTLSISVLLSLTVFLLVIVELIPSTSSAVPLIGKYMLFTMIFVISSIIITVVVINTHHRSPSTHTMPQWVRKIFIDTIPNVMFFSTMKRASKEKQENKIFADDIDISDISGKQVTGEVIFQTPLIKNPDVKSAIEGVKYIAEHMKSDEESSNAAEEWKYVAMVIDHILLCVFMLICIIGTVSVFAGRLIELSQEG
T1 sequence (P02712 whole entry): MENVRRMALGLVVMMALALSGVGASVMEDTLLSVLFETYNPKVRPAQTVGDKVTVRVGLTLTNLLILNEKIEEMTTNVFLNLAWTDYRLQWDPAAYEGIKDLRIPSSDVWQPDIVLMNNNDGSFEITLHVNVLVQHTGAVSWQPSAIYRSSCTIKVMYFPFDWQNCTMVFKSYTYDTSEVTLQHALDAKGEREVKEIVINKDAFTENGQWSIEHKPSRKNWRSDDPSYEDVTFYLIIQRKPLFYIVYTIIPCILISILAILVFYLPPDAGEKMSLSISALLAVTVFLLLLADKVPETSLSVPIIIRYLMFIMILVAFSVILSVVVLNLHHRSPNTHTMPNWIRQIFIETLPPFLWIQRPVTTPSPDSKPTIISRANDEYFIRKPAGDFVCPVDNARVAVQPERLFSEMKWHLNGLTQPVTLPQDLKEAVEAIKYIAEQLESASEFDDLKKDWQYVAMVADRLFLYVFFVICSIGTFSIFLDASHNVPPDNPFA
T1 sequence (P02718 whole entry): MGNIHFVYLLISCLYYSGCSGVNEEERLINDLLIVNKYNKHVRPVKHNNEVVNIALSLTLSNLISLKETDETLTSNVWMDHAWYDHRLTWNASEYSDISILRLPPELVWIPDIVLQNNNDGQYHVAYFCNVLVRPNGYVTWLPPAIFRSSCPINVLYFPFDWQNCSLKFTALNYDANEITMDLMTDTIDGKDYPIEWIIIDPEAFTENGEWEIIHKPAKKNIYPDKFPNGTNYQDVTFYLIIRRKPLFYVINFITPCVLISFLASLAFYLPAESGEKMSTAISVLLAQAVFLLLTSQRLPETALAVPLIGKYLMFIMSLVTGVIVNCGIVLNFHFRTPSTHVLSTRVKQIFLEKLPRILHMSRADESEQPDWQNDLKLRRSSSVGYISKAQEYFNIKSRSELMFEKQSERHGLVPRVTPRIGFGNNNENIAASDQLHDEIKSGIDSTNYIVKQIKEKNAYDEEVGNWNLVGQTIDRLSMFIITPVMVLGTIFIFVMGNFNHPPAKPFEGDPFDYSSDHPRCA
T1 sequence (P02714 whole entry): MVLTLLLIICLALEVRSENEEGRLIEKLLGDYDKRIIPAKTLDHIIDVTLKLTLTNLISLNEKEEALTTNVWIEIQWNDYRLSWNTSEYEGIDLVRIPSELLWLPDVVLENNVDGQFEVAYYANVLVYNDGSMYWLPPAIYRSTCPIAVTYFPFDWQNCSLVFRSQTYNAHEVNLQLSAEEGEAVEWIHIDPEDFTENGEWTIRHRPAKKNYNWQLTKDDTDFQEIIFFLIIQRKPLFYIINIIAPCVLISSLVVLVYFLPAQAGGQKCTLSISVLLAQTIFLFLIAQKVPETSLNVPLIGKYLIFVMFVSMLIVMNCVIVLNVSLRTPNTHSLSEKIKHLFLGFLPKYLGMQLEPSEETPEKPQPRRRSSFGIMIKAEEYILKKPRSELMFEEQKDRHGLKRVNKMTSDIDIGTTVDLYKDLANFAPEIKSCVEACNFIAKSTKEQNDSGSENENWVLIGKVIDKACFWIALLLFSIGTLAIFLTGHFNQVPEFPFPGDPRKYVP

Acetylcholine receptor [2] = target: T1, Acetylcholine receptor; experiment: Binding affinity against nicotinic acetylcholine receptor (nAChR); type: protein-complex assay, Tetronarce californica

With `C[N+](C)(CCCCCC[N+](C)(C)Cc1cccc(O)c1O)Cc1cccc(O)c1O` the Kd (Acetylcholine receptor [1]) was 18 nM and the Ki (Acetylcholine receptor [2]) was 0.018 µM.

`C[N+](C)(CCCCCCCCCC[N+](C)(C)Cc1cccc(O)c1O)Cc1cccc(O)c1O` gave a Kd (Acetylcholine receptor [1]) of 230 nM.

`C[N+](C)(C)Cc1cccc(O)c1O` showed a Ki (Acetylcholine receptor [2]) of 28 µM.

`C[N+](C)(C)CCCCCC[N+](C)(C)C` [HEXAMETHONIUM BROMIDE] showed a Kd (Acetylcholine receptor [1]) of 18 nM.
